In ChEMBL document CHEMBL5579865, “Discovery of Broad-Spectrum Herpes Antiviral Oxazolidinone Amide Derivatives and Their Structure-Activity Relationships” (ACS Med Chem Lett, 2024):
In brackets after ≈: the same amount, converted by molar mass. Values belong to the compound of their own block, whether it stands above or below them.

How the values were obtained:
[1] = Metabolic stability in human liver microsomes assessed as intrinsic clearance; assay type: ADME, Microsome; details: read-out: CLH
Human alphaherpesvirus 1 = test: Antiviral activity against HSV-1 F strain infected in African green monkey Vero cells assessed as reduction in viral replication incubated for 72 hrs by qRT-PCR analysis; assay type: functional, organism-based
Human alphaherpesvirus 2 = test: Antiviral activity against HSV-2 G strain infected in African green monkey Vero cells assessed as reduction in viral replication incubated for 72 hrs by qRT-PCR analysis; assay type: functional, organism-based
[2] = Inhibition of HCMV DNA polymerase extracted from baculovirus infected Sf21 cells using Heterodimeric nucleic acid as substrate preincubated with enzyme for 30 mins followed by substrate and dATP addition measured after 60 mins by biotinylated UTP incorporation based AlphaLISA assay; set-up: species or system Human betaherpesvirus 5
[3] = Inhibition of VZV DNA polymerase extracted from baculovirus infected Sf21 cells using Heterodimeric nucleic acid as substrate preincubated with enzyme for 30 mins followed by substrate and dATP addition measured after 60 mins by biotinylated UTP incorporation based AlphaLISA assay; set-up: species or system Human alphaherpesvirus 3
[4] = Solubility in PBS at pH 7; assay type: physicochemical
Human betaherpesvirus 5 [5] = test: Antiviral activity against HCMV AD169 infected in human MRC5 cells assessed as reduction in viral replication incubated for 72 hrs in presence of 50 % serum by qRT-PCR analysis; assay type: functional, organism-based
Human alphaherpesvirus 3 [6] = test: Antiviral activity against VZV Street infected in human MeWo cells assessed as reduction in viral replication incubated for 72 hrs by qRT-PCR analysis; assay type: functional, organism-based
Human betaherpesvirus 5 [7] = test: Antiviral activity against HCMV AD169 infected in human MRC5 cells assessed as reduction in viral replication incubated for 72 hrs in presence of 10 % serum by qRT-PCR analysis; assay type: functional, organism-based; details: Human betaherpesvirus 5, AD169, MRC5, 72 h
Human alphaherpesvirus 3 [8] = test: Antiviral activity against VZV Street infected in human MRC5 cells assessed as reduction in viral replication incubated for 72 hrs by qRT-PCR analysis; assay type: functional, organism-based; details: Human alphaherpesvirus 3, Street, MRC5, 72 h
[9] = Human alphaherpesvirus 1, F strain, Vero, 72 h, read-out: EC50
[10] = Human alphaherpesvirus 2, G strain, Vero, 72 h, read-out: EC50
[11] = Human betaherpesvirus 5, AD169, MRC5, 72 h, read-out: EC50
[12] = Human alphaherpesvirus 3, Street, MeWo, 72 h, read-out: EC50

Structure (SMILES): CCOc1cc(NC(=O)Cc2ccc(Cl)cc2)ccc1C[C@H]1COC(=O)N1
- CLint scaled [1]: 29 mL/min/kg
- EC50 (Human alphaherpesvirus 1; [9]): 97 nM
- EC50 (Human alphaherpesvirus 2; [10]): 37 nM
- IC50 [2]: 45 nM
- IC50 [3]: 18 nM
- solubility [4]: 76 µM (≈ 29.6 µg/mL)
- EC50 (Human betaherpesvirus 5 [5]; [11]): 1200 nM
- EC50 (Human alphaherpesvirus 3 [6]; [12]): 85 nM

- IC50 [2]: 18000 nM
- IC50 [3]: 24700 nM
Structure (SMILES): O=C(Cc1ccc(Cl)cc1)Nc1ccc(C(=O)c2ccccc2)cc1

Structure (SMILES): COc1cc(NC(=O)Cc2ccc(C#N)cc2)ccc1C[C@H]1COC(=O)N1
- EC50 (Human alphaherpesvirus 1; [9]): 297 nM
- EC50 (Human alphaherpesvirus 2; [10]): 789 nM
- IC50 [2]: 52 nM
- IC50 [3]: 15 nM
- EC50 (Human betaherpesvirus 5 [5]; [11]): 186 nM
- EC50 (Human alphaherpesvirus 3 [6]; [12]): 131 nM

- IC50 [2]: 23300 nM
- IC50 [3]: 8200 nM
Structure (SMILES): O=C1CC(c2ccc(NC(=O)Cc3ccc(Cl)cc3)cc2)CN1 (racemic)

Structure (SMILES): COc1cc(NC(=O)Cc2ccc(Cl)cc2F)ccc1C[C@H]1COC(=O)N1
- CLint scaled [1]: 16 mL/min/kg
- EC50 (Human alphaherpesvirus 1; [9]): 214 nM
- EC50 (Human alphaherpesvirus 2; [10]): 589 nM
- IC50 [2]: 45 nM
- IC50 [3]: 17 nM
- solubility [4]: 153 µM (≈ 60.1 µg/mL)
- EC50 (Human betaherpesvirus 5 [5]; [11]): 1130 nM
- EC50 (Human alphaherpesvirus 3 [6]; [12]): 23 nM

Structure (SMILES): O=C(Nc1ccc(Cl)cc1)Nc1ccc(C[C@H]2COC(=O)N2)cc1
- EC50 (Human betaherpesvirus 5 [7]): 1110 nM
- EC50 (Human alphaherpesvirus 1): Not Active
- EC50 (Human alphaherpesvirus 2): Not Active
- IC50 [2]: 480 nM
- IC50 [3]: 210 nM
- EC50 (Human alphaherpesvirus 3 [6]): Not Active

- IC50 [2]: 13300 nM
- IC50 [3]: 12500 nM
Structure (SMILES): CS(=O)(=O)c1cccc(Cc2ccc(NC(=O)Cc3ccc(Cl)cc3)cc2)c1

Structure (SMILES): O=C(Cc1ccc(Cl)cc1)Nc1ccc(C[C@H]2COC(=O)N2)cc1
- EC50 (Human alphaherpesvirus 1; [9]): 530 nM
- EC50 (Human alphaherpesvirus 2; [10]): 1340 nM
- IC50 [2]: 250 nM
- IC50 [3]: 180 nM
- EC50 (Human betaherpesvirus 5 [5]; [11]): 4320 nM
- EC50 (Human alphaherpesvirus 3 [6]; [12]): 500 nM

Structure (SMILES): COc1nc(NC(=O)Cc2ccc(Cl)cc2)cnc1C[C@H]1COC(=O)N1
- EC50 (Human betaherpesvirus 5 [7]): > 80200 nM
- EC50 (Human alphaherpesvirus 1): Not Active
- EC50 (Human alphaherpesvirus 2): Not Active
- IC50 [2]: 24100 nM
- IC50 [3]: 23800 nM
- EC50 (Human alphaherpesvirus 3 [8]): > 80200 nM

- IC50 [2]: 50800 nM
- IC50 [3]: 40900 nM
Structure (SMILES): N#CCc1ccc(NC(=O)Cc2ccc(Cl)cc2)cc1

- IC50 [2]: 6600 nM
- IC50 [3]: 4800 nM
Structure (SMILES): CC(=O)c1ccc(NC(=O)Cc2ccc(Cl)cc2)cc1

Structure (SMILES): O=C1N[C@@H](Cc2ccc3c(c2)OCC(Cc2ccc(Cl)cc2)N3)CO1 (some centres not stated)
- EC50 (Human alphaherpesvirus 1; [9]): 3120 nM
- EC50 (Human alphaherpesvirus 2; [10]): 5240 nM
- IC50 [2]: 490 nM
- IC50 [3]: 350 nM
- EC50 (Human betaherpesvirus 5 [5]; [11]): 13100 nM
- EC50 (Human alphaherpesvirus 3 [6]; [12]): 3060 nM

- IC50 [2]: 8300 nM
- IC50 [3]: 2700 nM
Structure (SMILES): N#CC1(c2ccc(NC(=O)Cc3ccc(Cl)cc3)cc2)CC1

Structure (SMILES): O=C1NC(Cc2ccc(C(=O)NCc3ccc(Cl)cc3)cc2)CO1 (configuration not stated)
- EC50 (Human alphaherpesvirus 1): Not Active
- EC50 (Human alphaherpesvirus 2): Not Active
- IC50 [2]: 116000 nM
- IC50 [3]: 26000 nM
- EC50 (Human betaherpesvirus 5 [5]): Not Active
- EC50 (Human alphaherpesvirus 3 [6]): Not Active

- IC50 [2]: 55000 nM
- IC50 [3]: 34800 nM
Structure (SMILES): Cc1nccn1Cc1ccc(NC(=O)Cc2ccc(Cl)cc2)cc1

Structure (SMILES): COc1cc(NC(=O)Cc2c(F)cc(Cl)cc2F)ccc1C[C@H]1COC(=O)N1
- EC50 (Human alphaherpesvirus 1; [9]): 564 nM
- EC50 (Human alphaherpesvirus 2; [10]): 874 nM
- IC50 [2]: 69 nM
- IC50 [3]: 46 nM
- solubility [4]: 7 µM (≈ 2.88 µg/mL)
- EC50 (Human betaherpesvirus 5 [5]; [11]): 614 nM
- EC50 (Human alphaherpesvirus 3 [6]; [12]): 182 nM

Structure (SMILES): COc1cc(NC(=O)Cc2ccc(S(F)(F)(F)(F)F)cc2)ccc1C[C@H]1COC(=O)N1
- EC50 (Human alphaherpesvirus 1): Not Active
- EC50 (Human alphaherpesvirus 2): Not Active
- IC50 [2]: 944 nM
- IC50 [3]: 2220 nM
- EC50 (Human alphaherpesvirus 3 [8]): 52700 nM
- EC50 (Human betaherpesvirus 5 [5]): Not Active

Structure (SMILES): O=C(Cc1ccc(Cl)cc1Cl)Nc1ccc(C[C@H]2COC(=O)N2)cc1
- EC50 (Human alphaherpesvirus 1; [9]): 810 nM
- EC50 (Human alphaherpesvirus 2; [10]): 910 nM
- IC50 [2]: 130 nM
- IC50 [3]: 130 nM
- EC50 (Human betaherpesvirus 5 [5]; [11]): 1340 nM
- EC50 (Human alphaherpesvirus 3 [6]; [12]): 540 nM

Structure (SMILES): CN1C(=O)OC[C@@H]1Cc1ccc(NC(=O)Cc2ccc(Cl)cc2)cc1
- EC50 (Human alphaherpesvirus 1): Not Active
- EC50 (Human alphaherpesvirus 2): Not Active
- IC50 [2]: 2550 nM
- IC50 [3]: 1840 nM
- EC50 (Human betaherpesvirus 5 [5]): Not Active
- EC50 (Human alphaherpesvirus 3 [6]): Not Active

Structure (SMILES): COc1cc(NC(=O)Cc2ccc(C#N)c(F)c2)ccc1C[C@H]1COC(=O)N1
- EC50 (Human alphaherpesvirus 1; [9]): 494 nM
- EC50 (Human alphaherpesvirus 2; [10]): 551 nM
- IC50 [2]: 46 nM
- IC50 [3]: 28 nM
- EC50 (Human betaherpesvirus 5 [5]; [11]): 141 nM
- EC50 (Human alphaherpesvirus 3 [6]; [12]): 265 nM
